According to patent US20100041045A1, “NUCLEIC ACID FLUORESCENT STAINS” (SIGMA-ALDRICH CO., priority 2007, published 2010):
Like-named read-outs stand apart in the source and are kept apart here.

Key:
[1] = tested on: HindIII-digested lambda DNA; experiment: Determination of the lower limit of detection (Example 6); conditions: 300 nm UV transilluminator, CCD camera, 590 nm emission filter
Experimental: HindIII-digested lambda DNA (200 ng/lane and 20 ng/lane) was resolved on agarose gels, as described above. EtBr was added to one gel such that the DNA was stained during electrophoresis; the other gels were stained with compound 6 (SL-2791), 7 (SL-2833), 8 (SL-2834), 9 (SL-2845), or SG1 after electrophoresis. Gels were imaged using a 300 nm UV transilluminator and a CCD camera with a 590 nm emission filter.

DNA polymerase [2] = conditions: high concentrations (>0.5 μM); cited from earlier work
PstI-digested lambda DNA = experiment: Post electrophoretic staining of DNA in agarose gels (Example 2); conditions: for detection of stained DNA at longer wavelengths: laser scanner, 532/580 filter set
Experimental: The absorption and emission spectra of the unsymmetrical monomethincyanine dyes of the invention are shifted to longer wavelengths relative to those of commonly used nucleic acid stains. […] Invitrogen Corp.) and imaged using different detection devices. PstI-digested lambda DNA (Cat. No. D1793; Sigma-Aldrich, St. Louis, Mo.) was resolved on agarose gels in the presence of TBE buffer, pH 8.3. Lanes were loaded with a total of either 500 ng or 100 ng of DNA (the loading buffer contained 0.05% bromophenol blue (w/v), 40% sucrose (w/v), 0.5% SDS (w/v), and 0.1 M EDTA, pH 8). The gels were run at 90 V for about 90 min. After electrophoresis, the gels were submerged in a solution of TBE buffer comprising 2 μM of 6 (SL-2791) or SG1 for 1 hr. After a quick rinse, the gels were imaged with 1) a 300 nm UV transilluminator (Cat. No. T2202; Sigma-Aldrich) or a 450 nm (blue light) transilluminator (Dark Reader™; Clare Chemical Research, Denver, Colo.) and a CCD camera imaging system (Gel Logic 100; Kodak Imaging, Rochester, N.Y.) equipped with a 535 nm or a 590 nm emission filter and 2) a laser scanner fluorescent image analyzer system (FLA-300; Fujifilm, Japan) equipped with excitation/emission filter sets of 473/520 nm or 532/580 nm.

[3] = tested on: HindIII-digested lambda DNA; experiment: DNA gel staining, comparison of compounds 7 and 8 (Example 4); conditions: 200 and 20 ng/lane DNA
Experimental: The brightness, sensitivity, and spectral properties of two of the new unsymmetrical monomethincyanine dyes, compound 7 (SL-2833) and compound 8 (SL-2834), were compared by staining gels containing 200 ng/lane and 20 ng/lane of HindIII-digested lambda DNA. The gels were processed and imaged as described above in Example 2.

[4] = tested on: HindIII-digested lambda DNA; experiment: Prestaining of DNA during electrophoresis (Example 3)
Experimental: The ability of another of the new unsymmetrical monomethincyanine dyes, i.e., compound 7 (SL-2833), to stain DNA during electrophoresis (i.e., “prestain”) was compared to that of ethidium bromide (EtBr). For this, 1 μM of 7 (SL-2833) or EtBr was added to the heated agarose before the gel was poured. The gels were loaded with 200 ng/lane and 20 ng/lane of HindIII-digested lambda DNA (Cat. No. D9780; Sigma-Aldrich) and run at 90 V for about 90 min. After electrophoresis, the gels were imaged as described above in Example 2.

[5] = tested on: HindIII-digested lambda DNA and 0.2-10 kb RNA markers; experiment: Staining of DNA and RNA in gels (Example 5); conditions: 200 ng/lane DNA, 1 μg/lane RNA; laser scanner 532/580 nm
Experimental: Gels were loaded with 200 ng/lane of HindIII-digested lambda DNA and 1 μg/lane of 0.2-10 kb RNA markers (Cat. No. R1386; Sigma-Aldrich). The RNA loading buffer contained 62.5% formamide (v/v), 1.14 M formaldehyde, 0.2 mg/ml bromophenol blue, 0.2 mg/ml xylene cyanol, and 1.25×MOPS-EDTA-sodium acetate buffer. After electrophoresis the gels were stained with compound 9 (SL-2845), SG1, or the RNA-specific stain SYBR® Green 2 (SG2; Invitrogen) and imaged as described above in Example 2.

DNA polymerase [6] = experiment: Inhibition of DNA polymerase activity in qPCR; type: biochemical; conditions: concentrations greater than 0.5 μM
dsDNA = experiment: Binding specificity and fluorescence with dsDNA versus ssDNA
[7] = tested on: human alu-consnesus sequence; experiment: Real-time qPCR (Example 9); type: biochemical
Experimental: PCR was performed on human genomic DNA obtained from 0.16 million human peripheral blood leukocytes by direct lysis in a volume of 1 ml as described by Christopherson et al, PCR-Based Assay To Quantify Human Immunodeficiency Virus Type 1 DNA In Peripheral Blood Mononuclear Cells, 2000, J Clin Microbiol., pp. 630-634, Vol. 38. […] Additionally, a non-template control containing deionised water as sample was used. Two μl per sample were then used for real-time PCR as follows: PCR reactions were run in JumpStart™ ReadyMix™ (Sigma Aldrich, order number p2893), containing salt, buffer, Taq-DNA polymerase and deoxynucleotidetriphosphates in a final volume of 32 μl. PCR primers were added to a final concentration of 1 μM. To obtain optimal performance in real time PCR, the PCR mix was supplemented with additional MgCL2 to a final concentration of 3 mM. The DNA binding dye Nancy-520 was added to a final concentration of 200 nM. PCR primers mf39 (5′-[…]-3′) and mf40 (5′-[…]-3′) were used at a final concentration of 1 μM. These primers amplify a 133 base pair fragment of the human alu-consnesus sequence (see Clayerie et al, Alu alert, 1994, Nature, pp. 752, Vol. 371.) (available from the Genbank database: http://www.ncbi.nlm.nih.gov/Genbank/, entry nr: HSU14574). Because these repetitive sequences are highly abundant in the human genome, the PCR for alu sequences can be used to detect minute amounts of human DNA.
Real-time PCR was performed in a real-time PCR thermocycler (IQ-5, Biorad, Basel Switzerland) using the following cycling profile: Initial denaturation 94° C. 20 sec, followed for 40 cycles (94° C. 5 sec, 60° C. 5 sec, 72° C. 20 sec, 60° C. 60 sec with real-time monitoring). After cycling a melting curve analysis ranging from 55° C.-92° C. was performed with temperature increments of 0.5° C. and measurement intervals of 30 sec. Five different optical filter-sets were used for real-time PCR monitoring and melting-curve analysis according to the suppliers instructions (see table 1).
Data (FIG. 9A, 9C, 9D) were analyzed using the IQ5 software (version 2.0) or by linear regression analysis (FIG. 9B) using the statistical software GraphPad Prism version 5.01 (GraphPad Software, Inc., La Jolla, Calif.)
The first number, 485, indicates the center of the wavelength of light. The second number, 20 indicates the total breadth of wavelengths of light that can pass through it.

[8] = tested on: HindIII-digested lambda DNA; experiment: Digestion of stained DNA (Example 7); type: biochemical; conditions: 6557 bp band eluted from gel, restriction enzyme
Experimental: To determine whether the binding between DNA and an unsymmetrical monomethincyanine dye was strong enough to inhibit the digestion of the DNA, HindIII-digested lambda DNA (1 μg/lane) was resolved on an agarose gel (0.8%), as described above. The DNA was stained either during or after electrophoresis. The band-of-interest (e.g., the 6557 bp band) was excised from the gel using a blue light transilluminator [see FIG. 6A, the DNA was stained with 6 (SL-2791)]. DNA was eluted from the piece of agarose using a spin column (GenElute Agarose Spin Column, Cat. No. 5-6500; Sigma-Aldrich). The collected DNA was digested with an appropriate restriction enzyme, and the reaction products were analyzed on a new agarose gel (1.2%) using compound 9 (SL-2845). The left lane of FIG. 6B presents the undigested DNA and the right lane of FIG. 6B presents the digested products.

[9] = 1 μM in gel, UV transilluminator

CCCN(CCCN(C)C)c1cc(/C=C2/Sc3ccccc3N2C)c2ccccc2[n+]1-c1ccccc1 [SG1]
lower limit of detection, DNA per lane [1]: less than 1 ng
inhibition of DNA polymerase activity (DNA polymerase [2]): inhibit DNA polymerase activity
detection of stained DNA at longer wavelengths (PstI-digested lambda DNA): not visible
detection of stained DNA at longer wavelengths (PstI-digested lambda DNA; listed as SYBR® Green 1): not detected

Cc1ccc2c(c1)/C(=C/c1sc3ccccc3[n+]1CCCO)C=C(c1ccccc1)N2C [Compound 7]
detection using the laser-based long wavelength imaging system [3]: clearly detected
fluorescence with blue light transilluminator and 590 nm filter as compared to UV transilluminator [3]: reduced fluorescence
background fluorescence at top of gels compared with EtBr [4, 9]: lower background fluorescence
fluorescence of stained DNA bands compared with EtBr [4, 9]: increased fluorescence
imaging of stained DNA at longer wavelengths ([4]; laser scanner 473/520 and 532/580 nm filter sets, low levels of DNA = 20 ng/lane): readily imaged

CN1C(c2ccccc2)=C/C(=C\c2sc3ccccc3[n+]2CCCCO)c2ccccc21 [Compound 9]
staining intensity of DNA versus RNA [5]: stained DNA more intensely than RNA
inhibition of DNA polymerase activity (DNA polymerase [6]): does not inhibit DNA polymerase activity
binding specificity for dsDNA (dsDNA): high binding specificity
fluorescence in the presence of dsDNA (dsDNA): strong fluorescence signal
fluorescence in the presence of ssDNA or in the absence of nucleic acids (dsDNA): only weak fluorescence
robustness in DNA melt curve analysis ([7]; 55° C.-92° C. following PCR cycling): sufficiently robust
thermostability ([7]; PCR temperature cycles): high thermostability
Performance of PCR in measuring Nancy-520 fluorescence ([7]; filter-set CY3, 545/30X 585/20M): Filter set unsuitable (data not shown)
Performance of PCR in measuring Nancy-520 fluorescence ([7]; filter-set CY5, 630/30X 685/30M): Filter set unsuitable (data not shown)
Performance of PCR in measuring Nancy-520 fluorescence ([7]; filter-set FAM, 485/20X 530/30M): Weak
Performance of PCR in measuring Nancy-520 fluorescence ([7]; filter-set TXR, 575/30X 625/30M): Strong amplification signals (virtually
PCR signal amplitudes at lower dye concentrations ([7]; lower concentrations than 2000 nm, data not shown): Suitable although slightly reduced signal amplitudes

CN1C(c2ccccc2)=C/C(=C\c2sc3ccccc3[n+]2CCCO)c2ccccc21 [Compound 6, 1-Methyl-4-[(2,3-dihydro-3-(3-hydroxypropyl)benzo-1,3-thiazol-2-yl)-methyliden]-2-phenyl-quinolinium perchlorate]
brightness of stained DNA bands compared with SG1 (PstI-digested lambda DNA; 2 μM stain in TBE for 1 hr, under each detection condition): much brighter
detection of stained DNA at longer wavelengths (PstI-digested lambda DNA): could be detected at longer wavelengths
enzymatic digestion of stained DNA [8]: may be enzymatically digested

Cc1ccc2c(c1)/C(=C/c1sc3ccccc3[n+]1CCO)C=C(c1ccccc1)N2C [Compound 8]
detection using the laser-based long wavelength imaging system [3]: clearly detected
fluorescence with blue light transilluminator and 590 nm filter as compared to UV transilluminator [3]: reduced fluorescence
